Experimental data as given in patent EP4119145A1, “COMPOUNDS FOR THE TREATMENT OF COVID-19” (priority 2021, dated 2023).
Counter-ions that a name gives are not always drawn. Like-named read-outs stand apart in the source and are kept apart here.

Molecular target: SARS-CoV-2 PL-Pro (Severe acute respiratory syndrome coronavirus 2, UniProt P0DTD1)
Experiment: biochemical
Conditions: for inhibition at 20 µM: read-out: PLPro Inhibition [%] Primary Screen (20 µM)
[1] = dose response, 0.014 µM to 20 µM, 8 concentration points, read-out: IC50

O=C1C(=O)c2ccccc2-c2ccccc21 [Compound 6, phenanthrene-9,10-dione]
IC50 [1]: 504 nM
inhibition at 20 µM: 181%

Cc1ccc(NC2=CC(=O)c3sc(C)nc3C2=O)cc1 [Compound 13, 2-methyl-5-(4-methylanilino)-1,3-benzothiazole-4,7-dione]
IC50 [1]: 260 nM
inhibition at 20 µM: 160%

CC[N+](C)(CC)CCC[n+]1c(-c2ccccc2)c2cc(N)ccc2c2ccc(N)cc21 [Compound 14, 3,8-Diamino-5-(3-(diethyl(methyl)ammonio)propyl)-6-phenylphenanthridin-5-ium iodide]
IC50: 240 nM
inhibition at 20 µM: 136%

CC1(C)C(=O)N=C2C1=C(O)C(=O)c1ccccc12 [Compound 9, 4-Hydroxy-3,3-dimethyl-3,5-dihydro-2H-benzobenzo[g]indole-2,5-dione]
IC50 [1]: 390 nM
inhibition at 20 µM: 155%

O=C1C(=O)c2cc([N+](=O)[O-])ccc2-c2ccccc21 [Compound 4, 2-Nitrophenanthrene-9,10-dione]
IC50 [1]: 129 nM
inhibition at 20 µM: 186%

CC(C)(C)C(=O)Nc1ccc2c(c1)C(=O)C(=O)c1ccccc1-2 [Compound 5, N-(9,10-Dioxo-9,10-dihydrophenanthren-2-yl)-2,2-dimethylpropionamide]
IC50 [1]: 246 nM
inhibition at 20 µM: 184%

CC(=NNC(=N)N)c1cc(NC(=O)CCCCCCCCC(=O)Nc2cc(C(C)=NNC(=N)N)cc(C(C)=NNC(=N)N)c2)cc(C(C)=NNC(=N)N)c1 [Compound 16, N,N'-Bis[3,5-bis[1-(2-amidinohydrazono)ethyl]phenyl]decanediamide]
IC50 [1]: 1210 nM
inhibition at 20 µM: 140%

cobalt(3+);[(2R,3S,4R,5S)-5-(5,6-dimethylbenzimidazol-1-yl)-4-hydroxy-2-(hydroxymethyl)oxolan-3-yl][(2R)-1-[3-[(1R,2R,3R,4Z,7S,9Z,12S,13S,14Z,17S,18S,19R)-2,13,18-tris(2-amino-2-oxoethyl)-7,12,17-tris(3-amino-3-oxopropyl)-3,5,8,8,13,15,18,19-octamethyl-2,7,12,17-tetrahydro-1H-corrin-21-id-3-yl]propanoylamino]propan-2-yl] phosphate;cyanide [Compound 17]
PLPro Inhibition [%] Primary Screen (20 µM): 141.27%
IC50 (read-out: IC50): 2900 nM

CC1(C)CCC2=C(O1)c1ccccc1C(=O)C2=O [Compound 10, 2,2-Dimethyl-3,4-dihydro-2H-benzo[h]1-benzopyrane-5,6-dione]
IC50 [1]: 4430 nM
inhibition at 20 µM: 146%

Cc1cc2nc3c(=O)[nH]c(=O)nc-3n(C)c2cc1C=O [Compound 3, 7,10-Dimethyl-2,4-dioxo-2,3,4,10-tetrahydrobenzo[g]pteridine-8-carbaldehyde]
IC50 [1]: 401 nM
inhibition at 20 µM: 119%

Cc1nc2c(=O)n(C)c(=O)nc-2n(C)n1 [Compound 2, 1,3,6-Trimethylpyrimido[5,4-e][1,2,4]triazine-5,7(1H,6H)-dione]
IC50 [1]: 74 nM
inhibition at 20 µM: 181%

O=C1C(Cl)=C(NCCN2CCOCC2)C(=O)c2ncccc21 [Compound 12, 6-Chloro-7-[2-(4-morpholinyl)ethylamino]-5,8-dihydroquinoline-5,8-dione]
IC50: 220 nM
inhibition at 20 µM: 151%

Cc1cccc2c1ccc1c3c(c(=O)oc(=O)c12)[C@@H](C)CO3 [Compound 11, (4R)-4,9-Dimethyl-4,5-dihydrofuro[3,2-c]naphtho[2,1-e]oxepine-1,3-dione]
IC50 [1]: 920 nM
inhibition at 20 µM: 80.7%

Cc1c(S(=O)(=O)O)oc2c1C(=O)C(=O)c1c-2ccc2c1CCCC2(C)C [Compound 8, 1,6,6-Trimethyl-10,11-dioxo-6,7,8,9,10,11-hexahydrophenanthro[1,2-b]furan-2-sulfonic acid sodium salt]
inhibition at 20 µM: 124%

CCOC(=O)C1=C(C)N=c2s/c(=C\c3ccc(OCC(=O)O)cc3)c(=O)n2C1c1ccc(SC)cc1 (centres unmarked) [Compound 15, 2-[4-[(Z)-[6-ethoxycarbonyl-7-methyl-5-(4-methylsulfanylphenyl)-3-oxo-5H-[1,3]thiazolo[3,2-a]pyrimidin-2-ylidene]methyl]phenoxy]acetic acid]
IC50 [1]: 3140 nM
inhibition at 20 µM: 82.8%
